Assays:
Test in all cases: relative viability (nuclei count vs DMSO), 5 days (fraction); higher = more cells survive
Quizartinib + Trametinib = compound: CC(C)(C)c1cc(NC(=O)Nc2ccc(-c3cn4c(n3)sc3cc(OCCN5CCOCC5)ccc34)cc2)no1 [Quizartinib] + CC(=O)Nc1cccc(-n2c(=O)n(C3CC3)c(=O)c3c(Nc4ccc(I)cc4F)n(C)c(=O)c(C)c32)c1 [Trametinib] (partner 0.02 µM)
Method in brief: (§1)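 Relative viability was taken as the ratio of nuclei in treated wells to nuclei in vehicle wells. Lung cancer cell lines in 1536-well plates received compounds by pin tool one day after seeding, either one drug alone or a fixed anchor-drug dose plus five library-drug doses (not always all listed) in √10 steps. Nuclei were counted on 4× images after 5 days of treatment, and values are medians of duplicate plates.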

Quizartinib + Decitabine = compound: CC(C)(C)c1cc(NC(=O)Nc2ccc(-c3cn4c(n3)sc3cc(OCCN5CCOCC5)ccc34)cc2)no1 [Quizartinib] + Nc1ncn([C@H]2C[C@H](O)[C@@H](CO)O2)c(=O)n1 [Decitabine] (partner 2 µM)
Method in brief: as §1

Quizartinib + Phenformin = compound: CC(C)(C)c1cc(NC(=O)Nc2ccc(-c3cn4c(n3)sc3cc(OCCN5CCOCC5)ccc34)cc2)no1 [Quizartinib] + N=C(N)NC(=N)NCCc1ccccc1 [Phenformin] (partner 250 µM)
Method in brief: as §1

YM155 + Navitoclax = compound: COCC[n+]1c2c(n(Cc3cnccn3)c1C)C(=O)c1ccccc1C2=O [YM155] + CC1(C)CCC(c2ccc(Cl)cc2)=C(CN2CCN(c3ccc(C(=O)NS(=O)(=O)c4ccc(N[C@H](CCN5CCOCC5)CSc5ccccc5)c(S(=O)(=O)C(F)(F)F)c4)cc3)CC2)C1 [Navitoclax] (partner 0.5 µM)
Method in brief: as §1

Cell Line | relative viability (Quizartinib + Trametinib; first compound 0.003162 µM) | relative viability (Quizartinib + Trametinib; first compound 0.01 µM) | relative viability (Quizartinib + Trametinib; first compound 0.03162 µM) | relative viability (Quizartinib + Trametinib; first compound 0.1 µM) | relative viability (Quizartinib + Decitabine; first compound 0.003162 µM) | relative viability (Quizartinib + Decitabine; first compound 0.01 µM) | relative viability (Quizartinib + Decitabine; first compound 0.03162 µM) | relative viability (Quizartinib + Decitabine; first compound 0.1 µM) | relative viability (Quizartinib + Phenformin; first compound 0.001 µM) | relative viability (Quizartinib + Phenformin; first compound 0.003162 µM) | relative viability (Quizartinib + Phenformin; first compound 0.01 µM) | relative viability (Quizartinib + Phenformin; first compound 0.03162 µM) | relative viability (Quizartinib + Phenformin; first compound 0.1 µM) | relative viability (YM155 + Navitoclax; first compound 0.002 µM) | relative viability (YM155 + Navitoclax; first compound 0.006325 µM) | relative viability (YM155 + Navitoclax; first compound 0.02 µM) | relative viability (YM155 + Navitoclax; first compound 0.06325 µM) | relative viability (Quizartinib + Trametinib; first compound 0.001 µM) | relative viability (Quizartinib + Decitabine; first compound 0.001 µM)
H3255 | 0.561 | 0.653 | 0.637 | 0.663 | 0.576 | 0.674 | 0.601 | 0.738 | 0.38 | 0.31 | 0.383 | 0.346 | 0.354 | 0.491 | 0.523 | 0.487 | 0.525 |  | 
NCI-H1755 | 0.851 | 0.856 | 0.784 | 0.755 | 0.676 | 0.71 | 0.722 | 0.734 | 0.58 | 0.665 | 0.609 | 0.652 | 0.672 | 0.996 | 0.981 | 0.949 | 1.06 | 0.744 | 0.59
IA-LM |  |  |  |  |  |  |  |  |  |  |  |  |  | 0.723 | 0.757 | 0.811 | 0.585 |  | 
NCI-H23 | 0.346 | 0.456 | 0.43 | 0.312 | 0.266 | 0.33 | 0.278 | 0.317 |  | 0.724 | 0.771 | 0.727 | 0.841 | 0.727 | 0.879 | 0.967 | 0.269 | 0.353 | 0.267
NCI-H661 | 0.533 | 0.554 | 0.552 | 0.525 | 0.5 | 0.577 | 0.561 | 0.599 | 0.274 | 0.289 | 0.3 | 0.224 | 0.194 |  |  |  |  | 0.575 | 0.55
PC-14 | 0.726 | 0.977 |  | 0.836 | 0.198 | 0.225 | 0.144 | 0.324 | 0.493 | 0.698 | 0.571 | 0.394 | 0.978 | 1.02 | 1.06 | 0.997 | 0.982 | 0.692 | 0.218
NCI-H647 | 0.387 | 0.508 | 0.434 | 0.396 | 0.369 | 0.437 | 0.405 | 0.549 | 0.463 | 0.591 | 0.569 | 0.453 | 0.514 | 0.947 | 1.17 | 0.855 | 0.442 | 0.43 | 0.32
NCI-H1792 | 0.429 | 0.412 | 0.457 | 0.293 | 0.502 | 0.598 | 0.449 | 0.577 | 0.259 | 0.2 | 0.244 | 0.346 | 0.243 | 0.595 | 0.615 | 0.63 | 0.612 | 0.374 | 0.459
SW 900 | 0.943 | 0.843 | 0.899 | 0.803 | 0.392 | 0.422 | 0.372 | 0.336 | 0.618 | 0.685 |  | 0.586 | 0.72 |  |  |  |  | 0.769 | 0.42
EKVX | 0.327 | 0.331 | 0.437 | 0.284 | 0.282 | 0.361 | 0.369 | 0.353 | 0.21 | 0.24 | 0.238 | 0.244 | 0.25 | 0.854 | 0.989 | 1.01 | 0.704 |  | 
COR-L23 | 0.552 | 0.595 | 0.479 | 0.543 | 0.457 | 0.398 | 0.372 | 0.467 | 0.419 | 0.389 | 0.476 | 0.37 | 0.322 | 0.905 | 0.877 | 0.505 | 0.123 | 0.518 | 0.436
NCI-H1355 | 0.43 | 0.444 | 0.423 | 0.357 | 0.349 | 0.338 | 0.331 | 0.36 | 0.426 | 0.434 | 0.437 | 0.426 | 0.415 | 0.947 | 1.08 | 1.08 | 1.04 | 0.411 | 0.346
NCI-H2085 | 0.528 | 0.567 | 0.531 | 0.515 | 0.536 | 0.58 | 0.544 | 0.583 | 0.631 | 0.648 | 0.753 | 0.673 | 0.574 | 1.06 | 0.989 | 0.99 | 0.674 | 0.62 | 0.521
A-427 | 0.691 | 0.675 | 0.591 | 0.704 | 0.529 | 0.582 | 0.515 | 0.566 |  | 0.411 | 0.327 | 0.256 | 0.189 | 0.984 | 0.88 | 0.91 | 0.997 | 0.517 | 0.517
LOU-NH91 | 0.756 | 0.817 | 0.786 | 0.826 | 0.815 | 0.862 | 0.79 | 0.89 | 0.693 | 0.679 | 0.723 | 0.682 | 0.862 | 0.748 | 0.677 | 0.725 | 0.716 | 0.425 | 0.746
CAL-12T | 0.371 | 0.345 | 0.271 | 0.352 |  |  |  |  | 0.587 | 0.533 | 0.66 | 0.435 | 0.39 | 1.22 | 1.16 | 1.16 | 0.299 | 0.371 | 
NCI-H520 | 0.465 | 0.673 | 0.637 | 0.486 | 0.449 | 0.501 | 0.542 | 0.462 | 0.582 | 0.526 | 0.532 | 0.357 | 0.35 | 1.15 | 0.991 | 1.07 | 1.03 |  | 
LCLC-103H | 0.645 | 0.664 | 0.712 | 0.694 | 0.735 | 0.682 | 0.796 | 0.759 | 0.306 | 0.276 | 0.341 | 0.337 | 0.361 |  |  |  |  | 0.658 | 0.632
NCI-H1651 | 0.785 | 0.898 | 0.797 | 0.859 | 0.642 | 0.667 | 0.612 | 0.626 | 0.41 | 0.268 | 0.35 | 0.231 | 0.272 | 1.22 | 0.995 | 1.08 | 0.606 | 0.715 | 0.626

Source: the supplement of paper PMC10307832
